Experimental data published in patent publication US12310975B2, “Modulators of BCL6 proteolysis and associated methods of use” (Arvinas Operations, Inc., priority 2019, dated 2025).

What was measured:
BCL6 [1] = target: T1, BCL6 (Homo sapiens (Human), UniProt P41182); assay: BCL6 TR-FRET assay (BCL6-Avitag-Biotin / BCoR-Cy5 peptide); assay type: binding; details: for IC50: read-out: IC50
Outline: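 TR-FRET displacement assay: biotinylated His-SUMO-BCL6-Avitag (2 nM) pre-incubated 30 min at room temperature with compound (12-point 3-fold titration), then BCoR-Cy5 peptide (100 nM) and Eu-streptavidin (2 nM) added. Buffer: 50 mM HEPES pH 7.5, 125 mM NaCl, 0.01% Triton X, glutathione or DTT, 0.03% BSA. Read after 2 h.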

BCL6 [2] = target: T1, BCL6; assay: Immunofluorescence high content imaging of BCL6 degradation in T47D cells; assay type: cell-based
Outline: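 Seed T47D in RPMI1640-10% FBS to reach ~70-90% confluence at endpoint; add degrader next day (11-point 3-fold series, top 0.1 or 1 μM final) for 3 days. Then fix, permeabilize, stain BCL6 with nuclear Hoechst, and image.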

EC50 (BCL6 [1]) | IC50 (BCL6 [2]) | Dmax (BCL6 [2]; T47D) | IC50 (BCL6 [2]; T47D cells) | Dmax (BCL6 [2]; T47D cells) | IC50 (BCL6 [1]) | SMILES
> 100 nM | – | – | ≥ 100 nM | < 50% | – | CN1C(=O)CCc2cc(Nc3nc(N4CCN(CC5CCN(c6cccc7c6C(=O)N(C6CCC(=O)NC6=O)C7=O)CC5)CC4)ncc3Cl)ccc21 (stereo not shown) [compound 378, 4-{4-[(4-{5-chloro-4-[(1-methyl-2-oxo-1,2,3,4-tetrahydroquinolin-6-yl)amino]pyrimidin-2-yl}piperazin-1-yl)methyl]piperidin-1-yl}-2-(2,6-dioxopiperidin-3-yl)-2,3-dihydro-1H-isoindole-1,3-dione]
– | – | 50 to 70% | – | – | < 10 nM | CNC(=O)COc1cc2cc(Nc3nc(N4CC5(CCC(OC6CCN(c7ccc8c(c7)C(=O)N(C7CCC(=O)NC7=O)C8=O)CC6)CC5)C4)ncc3Cl)ccc2n(C(C)C)c1=O (stereo not shown) [compound 444, 2-{[6-({5-chloro-2-[7-({1-[2-(2,6-dioxopiperidin-3-yl)-1,3-dioxo-2,3-dihydro-1H-isoindol-5-yl]piperidin-4-yl}oxy)-2-azaspiro[3.5]nonan-2-yl]pyrimidin-4-yl}amino)-2-oxo-1-(propan-2-yl)-1,2-dihydroquinolin-3-yl]oxy}-N-methylacetamide]
– | – | ≥ 70% | – | – | < 10 nM | CNC(=O)COc1cc2cc(Nc3nc(N4CC5(CCC(OC6CCN(c7cccc8c7C(=O)N(C7CCC(=O)NC7=O)C8=O)CC6)CC5)C4)ncc3Cl)ccc2n(C(C)C)c1=O (stereo not shown) [compound 445, 2-{[6-({5-chloro-2-[7-({1-[2-(2,6-dioxopiperidin-3-yl)-1,3-dioxo-2,3-dihydro-1H-isoindol-4-yl]piperidin-4-yl}oxy)-2-azaspiro[3.5]nonan-2-yl]pyrimidin-4-yl}amino)-2-oxo-1-(propan-2-yl)-1,2-dihydroquinolin-3-yl]oxy}-N-methylacetamide]
– | – | ≥ 70% | – | – | < 10 nM | CNC(=O)COc1cc2cc(Nc3nc(N4CCC(OC5CC6(CCN(c7cccc8c7CN(C7CCC(=O)NC7=O)C8=O)CC6)C5)CC4)ncc3Cl)ccc2n(C(C)C)c1=O (stereo not shown) [compound 446, 2-{[6-({5-chloro-2-[4-({7-[2-(2,6-dioxopiperidin-3-yl)-1-oxo-2,3-dihydro-1H-isoindol-4-yl]-7-azaspiro[3.5]nonan-2-yl}oxy)piperidin-1-yl]pyrimidin-4-yl}amino)-2-oxo-1-(propan-2-yl)-1,2-dihydroquinolin-3-yl]oxy}-N-methylacetamide]
– | – | ≥ 70% | – | – | 10 to 50 nM | CNC(=O)COc1cc2cc(Nc3nc(N4CCC5(CC4)CN(CC4CCN(c6ccc(C(=O)NC7CCC(=O)NC7=O)c(OC)c6)CC4)C5)ncc3Cl)ccc2n(C(C)C)c1=O (stereo not shown) [compound 447, 4-[4-({7-[5-chloro-4-({3-[(methylcarbamoyl)methoxy]-2-oxo-1-(propan-2-yl)-1,2-dihydroquinolin-6-yl}amino)pyrimidin-2-yl]-2,7-diazaspiro[3.5]nonan-2-yl}methyl)piperidin-1-yl]-N-(2,6-dioxopiperidin-3-yl)-2-methoxybenzamide]
– | – | 50 to 70% | – | – | < 10 nM | CNC(=O)COc1cc2cc(Nc3nc(N4CCC(CN5CC6(CCN(c7cccc8c7CN(C7CCC(=O)NC7=O)C8=O)CC6)C5)CC4)ncc3Cl)ccc2n(C(C)C)c1=O (stereo not shown) [compound 448, 2-{[6-({5-chloro-2-[4-({7-[2-(2,6-dioxopiperidin-3-yl)-1-oxo-2,3-dihydro-1H-isoindol-4-yl]-2,7-diazaspiro[3.5]nonan-2-yl}methyl)piperidin-1-yl]pyrimidin-4-yl}amino)-2-oxo-1-(propan-2-yl)-1,2-dihydroquinolin-3-yl]oxy}-N-methylacetamide]
– | – | ≥ 70% | – | – | < 10 nM | CNC(=O)COc1cc2cc(Nc3nc(N4CCC5(CC4)CN(CC4CCN(c6cccc(C(=O)NC7CCC(=O)NC7=O)c6F)CC4)C5)ncc3Cl)ccc2n(C(C)C)c1=O (stereo not shown) [compound 450, 3-[4-({7-[5-chloro-4-({3-[(methylcarbamoyl)methoxy]-2-oxo-1-(propan-2-yl)-1,2-dihydroquinolin-6-yl}amino)pyrimidin-2-yl]-2,7-diazaspiro[3.5]nonan-2-yl}methyl)piperidin-1-yl]-N-(2,6-dioxopiperidin-3-yl)-2-fluorobenzamide]

More lines, now with the values behind:

SMILES | EC50 (BCL6 [1]) | IC50 (BCL6 [2]) | Dmax (BCL6 [2]; T47D) | IC50 (BCL6 [2]; T47D cells) | Dmax (BCL6 [2]; T47D cells) | IC50 (BCL6 [1])
CNC(=O)COc1cc2cc(Nc3nc(N4CCN(CC5CCN(c6cnc(C(=O)NC7CCC(=O)NC7=O)nc6)CC5)CC4)ncc3Cl)ccc2n(C)c1=O (stereo not shown) [compound 273, 5-[4-({4-[5-chloro-4-({1-methyl-3-[(methylcarbamoyl)methoxy]-2-oxo-1,2-dihydroquinolin-6-yl}amino)pyrimidin-2-yl]piperazin-1-yl}methyl)piperidin-1-yl]-N-(2,6-dioxopiperidin-3-yl)pyrimidine-2-carboxamide] | 10 to 50 nM | 50 to 100 nM | < 50% | – | – | –
CNC(=O)C1Oc2cc(Nc3nc(N4CCN(C(C)(C)C5CCN(c6ccc7c(c6)C(=O)N(C6CCC(=O)NC6=O)C7=O)CC5)CC4)ncc3Cl)ccc2N(C)C1=O (stereo not shown) [compound 274, 7-({5-chloro-2-[4-(2-{1-[2-(2,6-dioxopiperidin-3-yl)-1,3-dioxo-2,3-dihydro-1H-isoindol-5-yl]piperidin-4-yl}propan-2-yl)piperazin-1-yl]pyrimidin-4-yl}amino)-N,4-dimethyl-3-oxo-3,4-dihydro-2H-1,4-benzoxazine-2-carboxamide] | > 100 nM | ≥ 100 nM | – | – | – | –
CNC(=O)COc1cc2cc(Nc3nc(N4CCN(CC5CCN(c6cccc(F)c6C(=O)NC6CCC(=O)NC6=O)CC5)CC4)ncc3Cl)ccc2n(C)c1=O (stereo not shown) [compound 275, 2-[4-({4-[5-chloro-4-({1-methyl-3-[(methylcarbamoyl)methoxy]-2-oxo-1,2-dihydroquinolin-6-yl}amino)pyrimidin-2-yl]piperazin-1-yl}methyl)piperidin-1-yl]-N-(2,6-dioxopiperidin-3-yl)-6-fluorobenzamide] | 10 to 50 nM | < 10 nM | < 50% | – | – | –
CNC(=O)COc1cc2cc(Nc3nc(N4CCN(CC5CCN(c6ccc(C(=O)NC7CCC(=O)NC7=O)cc6)CC5)CC4)ncc3Cl)ccc2n(C)c1=O (stereo not shown) [compound 276, 4-[4-({4-[5-chloro-4-({1-methyl-3-[(methylcarbamoyl)methoxy]-2-oxo-1,2-dihydroquinolin-6-yl}amino)pyrimidin-2-yl]piperazin-1-yl}methyl)piperidin-1-yl]-N-(2,6-dioxopiperidin-3-yl)benzamide] | < 10 nM | ≥ 100 nM | < 50% | – | – | –
CNC(=O)COc1cc2cc(Nc3nc(N4CCN(CC5CCN(c6ccc(F)c(C(=O)NC7CCC(=O)NC7=O)c6)CC5)CC4)ncc3Cl)ccc2n(C)c1=O (stereo not shown) [compound 277, 5-[4-({4-[5-chloro-4-({1-methyl-3-[(methylcarbamoyl)methoxy]-2-oxo-1,2-dihydroquinolin-6-yl}amino)pyrimidin-2-yl]piperazin-1-yl}methyl)piperidin-1-yl]-N-(2,6-dioxopiperidin-3-yl)-2-fluorobenzamide] | < 10 nM | 10 to 50 nM | < 50% | – | – | –
CNC(=O)COc1cc2cc(Nc3nc(N4CCN(CC5CCN(c6ccc(C(=O)NC7CCC(=O)NC7=O)nn6)CC5)CC4)ncc3Cl)ccc2n(C)c1=O (stereo not shown) [compound 278, 6-[4-({4-[5-chloro-4-({1-methyl-3-[(methylcarbamoyl)methoxy]-2-oxo-1,2-dihydroquinolin-6-yl}amino)pyrimidin-2-yl]piperazin-1-yl}methyl)piperidin-1-yl]-N-(2,6-dioxopiperidin-3-yl)pyridazine-3-carboxamide] | < 10 nM | 50 to 100 nM | < 50% | – | – | –
CNC(=O)COc1cc2cc(Nc3nc(N4CCN(C(C)(C)CN5CCN(c6ccc7c(c6)C(=O)N(C6CCC(=O)NC6=O)C7=O)CC5)CC4)ncc3Cl)ccc2n(C)c1=O (stereo not shown) [compound 279, 2-{[6-({5-chloro-2-[4-(1-{4-[2-(2,6-dioxopiperidin-3-yl)-1,3-dioxo-2,3-dihydro-1H-isoindol-5-yl]piperazin-1-yl}-2-methylpropan-2-yl)piperazin-1-yl]pyrimidin-4-yl}amino)-1-methyl-2-oxo-1,2-dihydroquinolin-3-yl]oxy}-N-methylacetamide] | 10 to 50 nM | 10 to 50 nM | 50 to 70% | – | – | –
CNC(=O)COc1cc2cc(Nc3nc(N4CCN(CC(C)(C)N5CCN(c6ccc7c(c6)C(=O)N(C6CCC(=O)NC6=O)C7=O)CC5)CC4)ncc3Cl)ccc2n(C)c1=O (stereo not shown) [compound 280, 2-{[6-({5-chloro-2-[4-(2-{4-[2-(2,6-dioxopiperidin-3-yl)-1,3-dioxo-2,3-dihydro-1H-isoindol-5-yl]piperazin-1-yl}-2-methylpropyl)piperazin-1-yl]pyrimidin-4-yl}amino)-1-methyl-2-oxo-1,2-dihydroquinolin-3-yl]oxy}-N-methylacetamide] | 10 to 50 nM | 10 to 50 nM | 50 to 70% | – | – | –
CNC(=O)COc1cc2cc(Nc3nc(N4CCN(CC5CCN(c6cnc(C(=O)NC7CCC(=O)NC7=O)cn6)CC5)CC4)ncc3Cl)ccc2n(C)c1=O (stereo not shown) [compound 281, 5-[4-({4-[5-chloro-4-({1-methyl-3-[(methylcarbamoyl)methoxy]-2-oxo-1,2-dihydroquinolin-6-yl}amino)pyrimidin-2-yl]piperazin-1-yl}methyl)piperidin-1-yl]-N-(2,6-dioxopiperidin-3-yl)pyrazine-2-carboxamide] | 10 to 50 nM | < 10 nM | < 50% | – | – | –
CN1C(=O)CCc2cc(Nc3nc(N4CCN(CC5CCN(c6ccc7c(c6)C(=O)N(C6CCC(=O)NC6=O)C7=O)CC5)CC4)ncc3Cl)ccc21 (stereo not shown) [compound 369, 5-{4-[(4-{5-chloro-4-[(1-methyl-2-oxo-1,2,3,4-tetrahydroquinolin-6-yl)amino]pyrimidin-2-yl}piperazin-1-yl)methyl]piperidin-1-yl}-2-(2,6-dioxopiperidin-3-yl)-2,3-dihydro-1H-isoindole-1,3-dione] | > 100 nM | – | – | ≥ 100 nM | – | –
